One assay addresses T1, GluClαF276A/βWT receptor (Caenorhabditis elegans, UniProt G5EBR3+Q17328, F276A).
T1 construct: entry codes of the full-length subunits used in this study; expressed in transfected cells; host or cells: CHO cells, transient co-transfection, pcDNA3.1 (X-tremeGENE HP for the IVM-EC50 experiments)
In words: Whole-cell patch clamp in CHO cells, GluClαF276A/βWT receptor. Type of assay: cell-based. As to the method: (§1) Chinese hamster ovary (CHO) cells were cultured as previously (Bar-Lev et al., [2011]) in Dulbecco’s Modified Eagle Medium (DMEM) containing 10% fetal calf serum, 2 mM glutamax, 100 Units/ml penicillin G and 100 μg/ml streptomycin, and grown in 5% CO2 at 37°C under 90%–95% humidity. The cells were seeded on glass coverslips (13-mm diameter) placed in a 24-multiwell plate. […] For the expression of GluCl receptors, cells were transiently co-transfected with pcDNA3.1 plasmids containing the ORFs of interest using transit-LT1 transfection reagent (Mirus, Madison, WI, USA), according to the manufacturer’s protocol. The cDNAs encoding the C. elegans GluClα (GLC-1) or its mutated versions and the GluClβ (GLC-2) subunits (200–600 ng per well) were used at 1:1 ratio. The pIRES-CD8 plasmid (200 ng per well) was added to enable the visualization of the expressing cells by beads coated with anti-CD8 antibodies (Invitrogen). For high-level expression of the GluClαF276A/βWT mutant receptor in experiments assigned to determine its IVM-EC50, we used the X-tremeGENE HP DNA Transfection Reagent (Roche Life Science). Recordings were performed 72–96 h following the transfection.
Whole-cell patch clamp recordings were performed as described previously (Bar-Lev et al., [2011]) in CHO cells that were prepared as detailed above. The normal external solution (NES) contained (in millimolar): 140 NaCl, 2.8 KCl, 2 CaCl2, 2 MgCl2, 10 glucose and 10 HEPES, adjusted to pH 7.35 with NaOH (310 mOsm/L). The pipette solution contained (in millimolar): 130 KCl, 4 MgCl2, 4 Na2ATP, 1 EGTA and 10 HEPES, adjusted to pH 7.35 with KOH (290 mOsm/L). The osmolarity of these solutions was maintained by adding sucrose. The electrode resistance was 6–10 MΩ when filled with the pipette solution. External solutions were applied onto the cell by using the VC-77SP fast-step system (Warner Instruments, Hamden, CT, USA) combined with N2 pressure of 3–4 psi to produce laminar flow of the external solution onto the patched cell. All measurements were performed at room temperature. The currents were measured with an Axopatch 200B patch-clamp amplifier (Molecular Devices, Sunnyvale, CA, USA) and a Digidata 1440A interface (Molecular Devices). Acquisition of recording data was performed at 2.5 kHz and recordings were low-pass filtered at 1 kHz, through a four-pole Bessel filter. The pClamp 10 software (Molecular Devices) was used for data acquisition. […] Five-hundred milliseconds after the application started (which is also after the current reached to its peak at −60 mV), the voltage was stepped from −60 mV to −80 mV for 50 ms followed by a 250-ms-long voltage ramp ranging from −80 mV to +80 mV.
Dose-response curves were fitted to the data points by a nonlinear regression using the Hill Equation 1,
A general note: In patch-clamp work, channel activity is measured electrically.

Assay [1] deals with T2, GluClβWT (GLC-2) homomeric receptor (Caenorhabditis elegans, UniProt Q17328).
T2 construct: entry codes of the full-length subunits used in this study; expressed in transfected cells; host or cells: CHO cells, transient transfection, pcDNA3.1
T2 sequence (Q17328 23-434): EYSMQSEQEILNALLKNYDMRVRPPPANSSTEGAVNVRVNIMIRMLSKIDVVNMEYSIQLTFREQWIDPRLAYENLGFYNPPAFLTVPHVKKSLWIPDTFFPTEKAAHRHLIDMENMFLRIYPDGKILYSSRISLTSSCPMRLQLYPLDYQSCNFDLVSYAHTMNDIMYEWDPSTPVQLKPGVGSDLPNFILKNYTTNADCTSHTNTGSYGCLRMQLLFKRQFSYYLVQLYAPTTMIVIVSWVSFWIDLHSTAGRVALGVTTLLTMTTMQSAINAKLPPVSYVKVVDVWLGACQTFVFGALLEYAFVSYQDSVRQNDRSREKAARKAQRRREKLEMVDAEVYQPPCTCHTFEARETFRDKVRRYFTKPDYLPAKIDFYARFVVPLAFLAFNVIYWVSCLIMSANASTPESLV
Nature of the assay: Whole-cell patch clamp in CHO cells transfected with GluClβWT subunit alone. Type of assay: cell-based. The note with it: βWT alone, 500 nM IVM, -60 mV. As to the method: as §1, with “For high-level expression of the GluClαF276A/βWT mutant receptor in experiments assigned to determine its IVM-EC50, we used the X-tremeGENE HP DNA Transfection Reagent (Roche Life Science). Recordings were performed 72–96 h following the transfection.” left out
Whole-cell patch clamp recordings were performed as described previously (Bar-Lev et al., [2011]) in CHO cells that were prepared as detailed above. […] The currents were measured with an Axopatch 200B patch-clamp amplifier (Molecular Devices, Sunnyvale, CA, USA) and a Digidata 1440A interface (Molecular Devices). […]

The structures appear in SMILES notation. Several values for one entry are separate records, joined by “and”; a condition that tells them apart may be missing. Equal entries are not always repeated.

The values below come from article PMC5382172 (Frontiers in Molecular Neuroscience, 2017).

T1 sequence (G5EBR3 21-461 F276A, one chain of several): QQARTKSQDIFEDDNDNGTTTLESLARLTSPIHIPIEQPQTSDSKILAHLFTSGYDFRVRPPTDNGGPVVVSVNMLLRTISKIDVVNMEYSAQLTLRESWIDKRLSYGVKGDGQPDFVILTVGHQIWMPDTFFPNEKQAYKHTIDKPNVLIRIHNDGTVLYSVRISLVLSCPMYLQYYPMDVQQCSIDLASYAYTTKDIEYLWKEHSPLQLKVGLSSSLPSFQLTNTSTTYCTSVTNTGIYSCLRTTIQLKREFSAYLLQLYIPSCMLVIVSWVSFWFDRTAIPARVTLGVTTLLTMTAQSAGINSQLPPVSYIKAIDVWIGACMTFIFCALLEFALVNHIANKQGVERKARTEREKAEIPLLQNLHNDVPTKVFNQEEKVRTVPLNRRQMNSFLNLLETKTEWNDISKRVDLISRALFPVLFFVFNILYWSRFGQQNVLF

Regarding `CC[C@H](C)[C@H]1O[C@]2(CC[C@@H]1C)C[C@@H]1C[C@@H](C/C=C(\C)[C@@H](O[C@H]3C[C@H](OC)[C@@H](O[C@H]4C[C@H](OC)[C@@H](O)[C@H](C)O4)[C@H](C)O3)[C@@H](C)/C=C/C=C3\CO[C@@H]4[C@H](O)C(C)=C[C@@H](C(=O)O1)[C@]34O)O2` [IVM, ivermectin], the “increase in IVM-EC50 relative to GluClαWT/βWT” value on GluClαF276A/βWT receptor turned out to be 20 fold. Also, the “Fold decrease in Glu-EC50 observed after pre-exposure to IVM” value on GluClαF276A/βWT receptor (50 nM IVM) is given as ~ 8.5 fold. Besides, at GluClαF276A/βWT receptor (50 nM IVM, -60 mV, just before the second application of Glu), the “magnitude of the IVM-elicited current” value is 70 pA. Also, the “decrease of IVM/Glu response ratio compared to GluClαWT/βWT” value at GluClαF276A/βWT receptor (500 nM IVM (-60 mV) over Glu-EC50 concentration (+60 mV) peak currents) is ~ 7 fold. At GluClαF276A/βWT receptor (1 mM Glu before and after exposure to 50 nM IVM), the “fold-potentiation of Glu-elicited response by IVM” value was ~ 18 fold and 17.9 ± 1.8 fold. Besides, the “IVM (500 nM) Amplitude” value at GluClαF276A/βWT receptor (CHO cells, 500 nM IVM, -60 mV) is 0.2 ± 0.03 nA; in assay [1], 0.0 ± 0.0 (10) nA. Further, the “Hill coefficient of activation by IVM” value on GluClαF276A/βWT receptor (cumulative IVM concentrations, -60 mV) is 3.5 and 3.5 ± 0.40. For the same compound, the concentration giving a half-maximal response (EC50) on GluClαF276A/βWT receptor (cumulative IVM concentrations, -60 mV, high-level expression (X-tremeGENE HP)) was 802 nM.

As a reminder, the EC50 is the concentration needed to bring the measured effect to its halfway point. A lower EC50 goes with greater potency.
